Drawing on US11560372B2, “Heterocyclic compounds useful as modulators of acetylcholine receptors” (TAKEDA PHARMACEUTICAL COMPANY LIMITED, priority 2017, dated 2023), this text covers efflux ratio for 11 compounds.

In this data set the target is T1, MDR1 (Homo sapiens, UniProt P08183).
T1 construct: expressed in transfected cells
T1 sequence (P08183 whole entry): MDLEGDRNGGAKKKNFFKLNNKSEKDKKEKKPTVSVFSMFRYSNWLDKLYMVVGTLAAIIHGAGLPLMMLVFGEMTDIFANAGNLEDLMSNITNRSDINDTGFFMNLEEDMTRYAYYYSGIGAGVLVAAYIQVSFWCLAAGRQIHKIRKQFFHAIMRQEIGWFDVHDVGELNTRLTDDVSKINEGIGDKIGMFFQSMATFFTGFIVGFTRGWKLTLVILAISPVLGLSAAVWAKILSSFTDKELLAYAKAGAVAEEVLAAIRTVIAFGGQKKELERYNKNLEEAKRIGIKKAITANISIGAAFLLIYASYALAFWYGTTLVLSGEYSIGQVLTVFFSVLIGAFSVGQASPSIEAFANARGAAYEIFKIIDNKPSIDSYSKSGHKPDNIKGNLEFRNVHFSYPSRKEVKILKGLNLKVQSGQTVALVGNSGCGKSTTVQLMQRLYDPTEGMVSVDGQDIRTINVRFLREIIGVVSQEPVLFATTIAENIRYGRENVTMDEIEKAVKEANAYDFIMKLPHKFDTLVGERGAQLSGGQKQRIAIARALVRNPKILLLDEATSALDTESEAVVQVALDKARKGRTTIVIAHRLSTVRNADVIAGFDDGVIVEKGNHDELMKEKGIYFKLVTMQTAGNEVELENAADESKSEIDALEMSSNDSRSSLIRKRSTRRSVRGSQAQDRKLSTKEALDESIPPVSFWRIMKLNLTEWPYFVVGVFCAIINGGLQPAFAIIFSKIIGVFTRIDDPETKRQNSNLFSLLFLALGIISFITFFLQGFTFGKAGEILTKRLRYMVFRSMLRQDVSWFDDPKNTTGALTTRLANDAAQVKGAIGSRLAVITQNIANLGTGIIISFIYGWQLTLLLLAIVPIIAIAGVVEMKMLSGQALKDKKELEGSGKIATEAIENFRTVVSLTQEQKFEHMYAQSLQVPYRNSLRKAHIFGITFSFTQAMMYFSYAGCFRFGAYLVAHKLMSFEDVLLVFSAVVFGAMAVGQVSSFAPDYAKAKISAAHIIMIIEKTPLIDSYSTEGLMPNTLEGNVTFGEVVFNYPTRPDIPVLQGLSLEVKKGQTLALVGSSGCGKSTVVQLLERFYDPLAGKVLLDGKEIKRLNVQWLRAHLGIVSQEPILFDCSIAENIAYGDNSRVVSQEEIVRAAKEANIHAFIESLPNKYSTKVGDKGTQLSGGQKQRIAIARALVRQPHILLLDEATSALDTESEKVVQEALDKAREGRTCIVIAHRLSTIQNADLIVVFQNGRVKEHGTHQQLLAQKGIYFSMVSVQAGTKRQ
Kind of data set: MDR1 membrane permeability test. The settings on record: pH 7.4, efflux ratio (ER), Papp B to A / A to B, human MDR1-expressing LLC-PK1 cells, read-out: MDR1 substrate screening 1 μM (MDRSUB1)/Ratio (NUMBER). The class given is in vitro ADME. The method, then:
MDR1 Membrane Permeability Test
When MDR1 is expressed in excess in LLC-PK1 cell, which is a polar cell, MDR1 is localized in apical membrane (A), thus promoting transcellular transport from the basement membrane side (B) toward direction A. When a ratio to the transcellular transport in the opposite direction is taken and a ratio to a control cell in which a mock vector has been introduced is further taken, an efflux ratio of MDR1 to simple diffusion (corrected efflux ratio) is calculated. Similarly, when a brain/plasma concentration ratio in Mdr1(−/−) mouse is divided by a brain/plasma concentration ratio in wild-type mouse, an efflux ratio of Mdr1 to simple diffusion in BBB (Kp, brain ratio, higher value means lower central nervous system permeability) is calculated. Adachi Y. et al. (Reference 1) has reported a positive correlation between corrected efflux ratio and Kp, brain ratio (FIG. 5(C)), and efflux ratio in MDR1 expressing cell and Kp, brain ratio (FIG. 5(B)).
To confirm the central nervous system permeability of the compounds of the present invention, a MDR1 membrane permeability test was performed by the following method.
Human MDR1-expressing LLC-PK1 cells were cultured according to the report of Takeuchi et al. (Reference 2). Human MDR1-expressing LLC-PK1 cells were cultured in 10% fetal bovine serum (Invitrogen), 500 μg/ml G418 (Invitrogen), 150 ng/ml colchicine-containing M199 medium (Invitrogen) under 5% CO2 conditions at 37° C.
Transcellular transport was performed according to the report of Sugimoto et al. (Reference 3). The cells were cultured for 3 days on HTS Transwell (registered trademark) 96 well permeable support (pore size 0.4 μm, 0.143 cm^2 surface area, Corning Life Sciences) having polyethylene terephthalate membrane on which the cells had been seeded at 3.45×10^4 cells/well. After preincubation in M199 medium (containing 10 mmol/L HEPES, 1% BSA, pH 7.4) for 30 min, a drug solution (10 μmol/L digoxin, 200 μmol/L LY, […]) dissolved in M199 medium was added to the apical side or basolateral side of the Transwell by 75 or 250 μL each and the cells were cultured under 5% CO2 conditions at 37° C. After 1 hr, the sample was collected from the side opposite to the side where the drug solution was added, and the concentration of the test compound was measured by LC-MS/MS. As an internal standard substance, 100 ng/mL alprenolol and diclofenac were used. The analysis conditions were as follows.
Papp, A to B and Papp, B to A (apparent permeability) were calculated from the formula (1), and the efflux ratio (ER) was calculated from the formula (2).
As for `Cc1c(Cc2ccc(-n3cccn3)cc2)cc2c(=O)n([C@H]3CCOC[C@@H]3O)cnc2c1C` [Comparative Example 1, 3-((3R,4S)-3-hydroxytetrahydro-2H-pyran-4-yl)-7,8-dimethyl-6-(4-(1H-pyrazol-1-yl)benzyl)quinazolin-4(3H)-one, reference compound], the efflux ratio at 1 hr, 1 μM stood at 0.83. With `Cc1c(Cc2ccc(-n3cccn3)cc2)cc2c(=O)n([C@H]3CCOC[C@@H]3O)nnc2c1C` [Comparative Example 2, 3-((3R,4S)-3-hydroxytetrahydro-2H-pyran-4-yl)-7,8-dimethyl-6-(4-(1H-pyrazol-1-yl)benzyl)-1,2,3-benzotriazin-4(3H)-one, reference compound] the figure was 1.3.

For `Cc1ccc(Cc2cc3c(=O)n([C@H]4CCOC[C@@H]4O)cnc3c(C)c2C)cn1` [Example 7, 1,5-anhydro-2,3-dideoxy-3-(7,8-dimethyl-6-((6-methylpyridin-3-yl)methyl)-4-oxoquinazolin-3(4H)-yl)-L-threo-pentitol], the efflux ratio at 1 hr, 1 μM was 3.5.

Consider `CNC(=O)c1ccc(Cc2cc3c(=O)n([C@H]4CCOC[C@@H]4O)cnc3c(Cl)c2C)cc1F` [Example 10, 1,5-anhydro-3-(8-chloro-6-(3-fluoro-4-(methylcarbamoyl)benzyl)-7-methyl-4-oxoquinazolin-3(4H)-yl)-2,3-dideoxy-L-threo-pentitol], for which the efflux ratio at 1 hr, 1 μM stood at 15. As for `Cc1nn(C)cc1-c1ccc(Cc2cc3c(=O)n([C@H]4CCOC[C@@H]4O)cnc3c(Cl)c2C)cn1` [Example 12, 1,5-anhydro-3-(8-chloro-6-((6-(1,3-dimethyl-1H-pyrazol-4-yl)pyridin-3-yl)methyl)-7-methyl-4-oxoquinazolin-3(4H)-yl)-2,3-dideoxy-L-threo-pentitol], the efflux ratio at 1 hr, 1 μM was determined as 17. With `Cc1c(Cc2ccc(-c3cn(C)nn3)nc2)cc2c(=O)n([C@H]3CCOC[C@@H]3O)cnc2c1Cl` [Example 14, 1,5-anhydro-3-(8-chloro-7-methyl-6-((6-(1-methyl-1H-1,2,3-triazol-4-yl)pyridin-3-yl)methyl)-4-oxoquinazolin-3(4H)-yl)-2,3-dideoxy-L-threo-pentitol] the figure was 22. Next, `Cc1c(Cc2ccc(-c3cn(C)nn3)cc2)cc2c(=O)n([C@H]3CCOC[C@@H]3O)cnc2c1Cl` [Example 15, 1,5-anhydro-3-(8-chloro-7-methyl-6-(4-(1-methyl-1H-1,2,3-triazol-4-yl)benzyl)-4-oxoquinazolin-3(4H)-yl)-2,3-dideoxy-L-threo-pentitol]: 9.7; `Cc1ccc(Cc2cc3c(=O)n([C@H]4CCOC[C@@H]4O)cnc3c(Cl)c2C)cn1` [Example 16, 1,5-anhydro-3-(8-chloro-7-methyl-6-((6-methylpyridin-3-yl)methyl)-4-oxoquinazolin-3(4H)-yl)-2,3-dideoxy-L-threo-pentitol]: 6.8; `Cc1c(Cc2ccc(-c3cn(C)nn3)cc2)cc2c(=O)n([C@H]3CCOC[C@@H]3O)nnc2c1Cl` [Example 20, 1,5-anhydro-3-(8-chloro-7-methyl-6-(4-(1-methyl-1H-1,2,3-triazol-4-yl)benzyl)-4-oxo-1,2,3-benzotriazin-3(4H)-yl)-2,3-dideoxy-L-threo-pentitol]: 2.9. With `CNC(=O)c1ccc(Cc2cc3c(=O)n([C@H]4CCOC[C@@H]4O)cnc3c(F)c2C)cc1F` [Example 21, 1,5-anhydro-2,3-dideoxy-3-(8-fluoro-6-(3-fluoro-4-(methylcarbamoyl)benzyl)-7-methyl-4-oxoquinazolin-3(4H)-yl)-L-threo-pentitol] the figure was 20; with `Cc1c(Cc2ccc(-c3cn(C)nn3)cc2)cc2c(=O)n([C@H]3CCOC[C@@H]3O)cnc2c1F` [Example 22, 1,5-anhydro-2,3-dideoxy-3-(8-fluoro-7-methyl-6-(4-(1-methyl-1H-1,2,3-triazol-4-yl)benzyl)-4-oxoquinazolin-3(4H)-yl)-L-threo-pentitol], 12.
